# Measurements as given in patent US9247738B2, “Method and composition for inhibition of microbial growth in aqueous food transport and process streams” (Ecolab USA Inc., priority 2000, dated 2016).
# Assays:
# Type in all cases: cell-based
# [1] = tested on: Salmonella javiana; assay: Kill of pathogenic bacteria on tomato surfaces and in the wash solution
# Experimental: (§1) The following procedure was employed for determining whether a composition killed pathogenic bacteria (e.g. Escherichia coli O157:H7, Listeria monocytogenes, or Salmonella javiana) on the surface of a fruit or vegetable. Bacteria were applied to tomato surfaces and allowed a 1-2 hour attachment time. Contaminated tomatoes were submersed in a peroxyacetic/peroxyoctanoic acid mixture according to the present invention (at a level yielding 40 ppm peroxyacetic acid) or water for 1 minute without agitation. After 1 minute, tomatoes were transferred to a solution that neutralized the peroxy acids and peroxides and massaged for 3 minutes to remove attached bacteria. The number of attached bacteria that survived treatment was determined using standard agar plating technique. The number of bacteria that “fell off” the tomato into the water or peroxyacetic/peroxyoctanoic acid mixture according to the present invention, and survived, was also determined by neutralization and agar plating technique. A similar experiment was conducted employing a peroxyacetic acid antimicrobial composition.
# [2] = tested on: Escherichia coli O157:H7; assay: as above
# Experimental: as §1
# [3] = tested on: Aerobic Bacteria; assay: Antimicrobial efficacy on fresh-cut vegetables, aerobic bacteria; details: 30 second exposure to process water
# Experimental: (§2) Vegetable processing water testing was done using the same antimicrobial agents as in laboratory aqueous system testing. The varying concentrations of each agent are listed in the results section. Municipal tap water was the diluent.
# (§3) The reduction of microorganisms in vegetable processing water treated with peroxyacetic acid or a peroxyacetic acid/peroxyoctanoic acid mixture was determined. Testing was done in two separate recycled water systems. In both systems, cut vegetables fell into a water stream that carried them to a de-watering area where they were collected for further processing. The water that the vegetables traveled in was routed to a balance tank that fed back into the original water stream thus completing the process loop. One system was used to wash cut, raw celery or cabbage. The other system was used to transport cut, raw potatoes to a blancher.
# (§4) Microorganism reduction on vegetable surfaces in the transport and process water was determined while water analyses were being conducted. Ten samples of each cut vegetable were collected just prior to falling into the process water stream and just after de-watering.
# (§5) Eleven grams of each sample were transferred to bag containing 99 mL of sterile phosphate buffered water. Contents of the bag were mixed in a Stomacher brand mixer for approximately 1 minute. Afterwards, 1 mL of the mixture was plated on Petrifilm brand Aerobic Plate Count, Coliform Count and Yeast & Mold Count media. 1 mL quantities of 100-fold serial dilutions were also plated. Petrifilms were incubated and enumerated as described above in this Example.
# (§6) The same analysis was used to evaluate the significance of reduction on vegetable surfaces.
# [4] = tested on: coliform bacteria; assay: Antimicrobial efficacy on fresh-cut vegetables, coliform bacteria; details: 30 second exposure to process water
# Experimental: as §2, §3, §4, §5, §6
# [5] = tested on: yeast and mold; assay: Antimicrobial efficacy in fresh-cut vegetable processing water, Yeast & Mold Count
# Experimental: as §2, §3
# (§7) During processing of each vegetable, 10 water samples were collected in sterile plastic bags containing an inactivating agent (0.01% sodium thiosulfate). 1 mL quantities were plated on Petrifilm® (3M, Inc.) Aerobic Plate Count, Coliform Count and Yeast & Mold Count media. Validation of these media using this procedure was performed prior to initiating testing (data not presented). Serial 100-fold dilutions were also plated. Petrifilms were incubated at 35° C. for 24 hours (Coliform Count), 35° C. for 48 hours (Aerobic Plate Count), or at room temperature for 72 hours (Yeast & Mold Count). The number of microorganisms was counted following incubation.
# as §6
# [6] = tested on: Candida parapsilosis; assay: Rate of fungus kill in use-solution; details: 80 ppm total peracid, 25° C.
# Experimental: (§8) Routine transfer to Sabouraud Dextrose agar slants maintained cultures of Candida parapsilosis (from blueberry processing water), Rhodotorula species (from celery processing water), Cryptococcus species (from potato processing water) and Zygosaccharomyces bailii (ATCC 60483). Growth was harvested by adding 5 mL of phosphate buffered water to the slant, mixing and then transferring the suspension into 90 mL of phosphate buffered water. The resulting suspension was used for testing.
# (§9) Two antimicrobial agents were used for testing. The first agent contained peroxyacetic acid. The second contained a peroxyacetic acid/peroxyoctanoic acid mixture. Both agents were diluted in sterile deionized water to achieve a total peracid concentration of 80 ppm. The composition of the use-solutions were as follows:
# (§10) The rate at which peroxyacetic acid and a peroxyacetic acid/peroxyoctanoic acid mixture killed fungi was measured by inoculating use-solutions of each antimicrobial agent with fungi and then quantifying survivors after various exposure times.
# (§11) Testing was performed in duplicate. 99 mL of each antimicrobial use-solution was transferred to a 250 mL Erlenmeyer flask and allowed to equilibrate to 25° C. The liquid in the flask was swirled vigorously in a rapid circular motion and 1 mL of a fungus suspension was added. After 30 seconds, 2, 5 or 10 minutes 1 mL quantities of the use-solution were transferred to 9 mL of an inactivating solution including 0.1% sodium thiosulfate. 1 mL quantities of the inactivating solution were pour-plated using Sabouraud Dextrose agar. Serial 100-fold dilutions of the inactivating solution were also plated. Agar plates were incubated for 72 hours at 26° C. before counting survivors. The log reduction of fungi due to the antimicrobial agent was determined by comparing reduction to a water control.
# [7] = tested on: Cryptococcus species; assay: Rate of fungus kill in use-solution; details: Cryptococcus sp., 80 ppm total peracid, 25° C.
# Experimental: as §8, §9, §10, §11
# [8] = tested on: Rhodotorula species; assay: Rate of fungus kill in use-solution; details: Rhodotorula sp., 80 ppm total peracid, 25° C.
# Experimental: as §8, §9, §10, §11
# [9] = tested on: Zygosaccharomyces bailii (ATCC 60483); assay: Rate of fungus kill in use-solution; details: Z. bailii, 80 ppm total peracid, 25° C.
# Experimental: as §8, §9, §10, §11
# [10] = tested on: Listeria monocytogenes; assay: Kill of pathogenic bacteria on tomato surfaces and in the wash solution
# Experimental: The following procedure was employed for determining whether a composition killed pathogenic bacteria (e.g. Escherichia coli O157:H7, Listeria monocytogenes, or Salmonella javiana) on the surface of a fruit or vegetable. Bacteria were applied to tomato surfaces and allowed a 1-2 hour attachment time. […] After 1 minute, tomatoes were transferred to a solution that neutralized the peroxy acids and peroxides and massaged for 3 minutes to remove attached bacteria. The number of attached bacteria that survived treatment was determined using standard agar plating technique. The number of bacteria that “fell off” the tomato into the water or peroxyacetic/peroxyoctanoic acid mixture according to the present invention, and survived, was also determined by neutralization and agar plating technique. A similar experiment was conducted employing a peroxyacetic acid antimicrobial composition.
# [11] = tested on: total aerobic bacteria; assay: Antimicrobial efficacy in fresh-cut vegetable processing water, Aerobic Plate Count
# Experimental: as §2, §3, §7, §6
# [12] = tested on: Yeast & Mold; assay: Antimicrobial efficacy on fresh-cut vegetables, yeast & mold; details: 30 second exposure to process water
# Experimental: as §2, §3, §4
# Eleven grams of each sample were transferred to bag containing 99 mL of sterile phosphate buffered water. Contents of the bag were mixed in a Stomacher brand mixer for approximately 1 minute. […] 1 mL quantities of 100-fold serial dilutions were also plated. […]
# [13] = tested on: Penicillium species; assay: Rate of fungus kill in use-solution (mold conidia); details: Penicillium sp., 80 ppm total peracid, 25° C.
# Experimental: (§12) Routine transfer to Sabouraud Dextrose agar slants maintained cultures of Aspergillus species (from onion processing water), Penicillium species (from celery processing water) and Cladosporium species (from potato processing water). Conidia suspensions of each mold were prepared by subculturing each mold to Sabouraud Dextrose agar plates and incubating until thick aerial mycelia with conidia were evident. Conidia were harvested by adding approximately 10 mL of phosphate buffered water to the plate, scraping the mycelia and collecting the suspension in a flask. The suspension was filtered through sterile gauze to remove large mycelia fragments from the conidia. The resulting suspension was used for testing.
# as §9, §10, §11
# [14] = tested on: Aspergillus species; assay: Rate of fungus kill in use-solution (mold conidia); details: Aspergillus sp., 80 ppm total peracid, 25° C.
# Experimental: as §12, §9, §10, §11
# [15] = tested on: Cladosporium species; assay: Rate of fungus kill in use-solution (mold conidia); details: Cladosporium sp., 80 ppm total peracid, 25° C.
# Experimental: as §12, §9, §10, §11
# [16] = tested on: coliform bacteria; assay: Antimicrobial efficacy in fresh-cut vegetable processing water, Coliform Count
# Experimental: as §2, §3, §7, §6
# [17] = Cabbage, peracid POAA agent 26 ppm, POAA/POOA agent 29 ppm
# [18] = Celery, peracid POAA agent 38 ppm, POAA/POOA agent 39 ppm
# [19] = Potatoes, peracid POAA agent 54 ppm, POAA/POOA agent 32 ppm
# [20] = Cabbage process water, average peracid from POAA agent 26 ppm, from POAA/POOA agent 29 ppm
# [21] = Celery process water, average peracid from POAA agent 38 ppm, from POAA/POOA agent 39 ppm
# [22] = Potatoes process water, average peracid from POAA agent 54 ppm, from POAA/POOA agent 32 ppm
smiles,measurement,setting,value
"CC(=O)OO [POAA, peroxyacetic acid]",reduction in amounts of S. javiana,[1]; 20 ppm POAA,no reduction
same,reduction in amounts of S. javiana,[1]; 40 ppm POAA,no reduction
same,reduction in amounts of S. javiana,[1]; 60 ppm POAA,91%
same,reduction in the E. coli O157:H7 in tomato wash water,[2]; 20 ppm POAA,57%
same,reduction in the E. coli O157:H7 in tomato wash water,[2]; 40 ppm POAA,88%
same,reduction in the E. coli O157:H7 in tomato wash water,[2]; 60 ppm POAA,94%
same,"Average log reduction on fresh-cut vegetables, Aerobic Bacteria Reduction",[3]; [17],0.84 log
same,"Average log reduction on fresh-cut vegetables, Aerobic Bacteria Reduction",[3]; [18],1.07 log
same,"Average log reduction on fresh-cut vegetables, Aerobic Bacteria Reduction",[3]; [19],1.54 log
same,"Average log reduction on fresh-cut vegetables, Coliform Bacteria Reduction",[4]; [17],>0.88 log
same,"Average log reduction on fresh-cut vegetables, Coliform Bacteria Reduction",[4]; [18],0.77 log
same,"Average log reduction on fresh-cut vegetables, Coliform Bacteria Reduction",[4]; [19],>1.58 log
same,"Average number of microorganisms in process water, Yeast & Mold Count",[5]; [20],2.02 log CFU/mL
same,"Average number of microorganisms in process water, Yeast & Mold Count",[5]; [21],1.86 log CFU/mL
same,"Average number of microorganisms in process water, Yeast & Mold Count",[5]; [22],5.48 log CFU/mL
same,Average log reduction of yeast,[6]; 2 Minutes,1.49 log
same,Average log reduction of yeast,[6]; 5 Minutes,3.42 log
same,Average log reduction of yeast,[6]; 30 Seconds,0.34 log
same,Average log reduction of yeast,[7]; 2 Minutes,>7.08 log
same,Average log reduction of yeast,[7]; 5 Minutes,>7.08 log
same,Average log reduction of yeast,[7]; 30 Seconds,>7.08 log
same,Average log reduction of yeast,[8]; 2 Minutes,>3.88 log
same,Average log reduction of yeast,[8]; 5 Minutes,>3.88 log
same,Average log reduction of yeast,[8]; 30 Seconds,>3.88 log
same,Average log reduction of yeast,[9]; 2 Minutes,0.18 log
same,Average log reduction of yeast,[9]; 5 Minutes,0.94 log
same,Average log reduction of yeast,[9]; 30 Seconds,0.16 log
same,reduction of L. monocytogenes on tomatoes,[10]; 20 ppm POAA,84%
same,reduction of L. monocytogenes on tomatoes,[10]; 40 ppm POAA,95%
same,reduction of L. monocytogenes on tomatoes,[10]; 60 ppm POAA,98%
same,"Average number of microorganisms in process water, Aerobic Plate Count",[11]; [20],1.92 log CFU/mL
same,"Average number of microorganisms in process water, Aerobic Plate Count",[11]; [21],2.02 log CFU/mL
same,"Average number of microorganisms in process water, Aerobic Plate Count",[11]; [22],0.92 log CFU/mL
same,"Average log reduction on fresh-cut vegetables, Yeast & Mold Reduction",[12]; [17],0.77 log
same,"Average log reduction on fresh-cut vegetables, Yeast & Mold Reduction",[12]; [18],0.68 log
same,Average log reduction of mold,[13]; 2 Minutes,0 log
same,Average log reduction of mold,[13]; 5 Minutes,0.45 log
same,Average log reduction of mold,[13]; 10 Minutes,1.52 log
same,Average log reduction of mold,[14]; 2 Minutes,0 log
same,Average log reduction of mold,[14]; 5 Minutes,0 log
same,Average log reduction of mold,[14]; 10 Minutes,0 log
same,Average log reduction of mold,[15]; 2 Minutes,1.86 log
same,Average log reduction of mold,[15]; 5 Minutes,4.18 log
same,Average log reduction of mold,[15]; 10 Minutes,>4.18 log
same,"Average number of microorganisms in process water, Coliform Count",[16]; [20],0 log CFU/mL
same,"Average number of microorganisms in process water, Coliform Count",[16]; [21],0 log CFU/mL
same,"Average number of microorganisms in process water, Coliform Count",[16]; [22],0 log CFU/mL
